Assay results published in patent US7964531B2, “3-phenoxy-4-pyridazinol derivatives and herbicidal composition containing the same” (Mitsui Chemicals Agro, Inc., priority 2001, dated 2011).

Row | melting point | SMILES
1 | 89 to 90 °C | Cc1ccc(S(=O)(=O)Oc2cc(Cl)nnc2Oc2c(C)cccc2C)cc1 [Compound No. 2263, 6-Chloro-3-(2,6-dimethylphenoxy)-4-pyridazinyl 4-methylbenzenesulfonate]
2 | 166 to 167 °C | Cc1cccc(C2CC2)c1Oc1nnc(Cl)cc1OC(=O)N(CCCl)CCCl
3 | 135 to 137 °C | COc1ccc(Br)cc1Oc1nnc(Cl)cc1O [Compound No. 702, 3-(5-Bromo-2-methoxyphenoxy)-6-chloro-4-pyridazinol]
4 | 197 to 202 °C | Cc1nc2cccc(Oc3nnc(Cl)cc3O)c2o1 [Compound No. 549, 6-Chloro-3-[(2-methyl-1,3-benzoxazol-7-yl)oxy]-4-pyridazinol]
5 | 218 to 225 °C | Cc1coc2cccc(Oc3nnc(Cl)cc3O)c12 [Compound No. 532, 6-Chloro-3-[(3-methyl-1-benzofuran-4-yl)oxy]-4-pyridazinol]
6 | 195 to 197 °C | C=Cc1cc(O)c(Oc2ccccc2C)nn1 [Compound No. 2436, 3-(2-Methylphenoxy)-6-vinyl-4-pyridazinol]
7 | 151.5 to 152.5 °C | CC(C)Cc1ccccc1Oc1nnc(Cl)cc1O [Compound No. 134, 6-Chloro-3-(2-isobutylphenoxy)-4-pyridazinol]
8 | 170 to 172 °C | COc1ccc(C)c(Oc2nnc(Cl)cc2O)c1 [Compound No. 629, 6-Chloro-3-(5-methoxy-2-methylphenoxy)-4-pyridazinol]
9 | 89 to 90 °C | COc1cccc(Oc2nnc(Cl)cc2OS(=O)(=O)c2ccc(C)cc2)c1 [Compound No. 2238, 6-Chloro-3-(3-methoxyphenoxy)-4-pyridazinyl 4-methylbenzenesulfonate]
10 | 209 to 213 °C | Oc1cc(Cl)nnc1Oc1c(F)cccc1F [Compound No. 710, 6-Chloro-3-(2,6-difluorophenoxy)-4-pyridazinol]
11 | 216 to 219 °C | Oc1ccccc1Oc1nnc(Cl)cc1O [Compound No. 384, 6-Chloro-3-(2-hydroxyphenoxy)-4-pyridazinol]
12 | 211 to 212 °C | N#Cc1ccc(C2CC2)c(Oc2nnc(Cl)cc2O)c1 [Compound No. 667, 3-[(6-Chloro-4-hydroxy-3-pyridazinyl)oxy]-4-cyclopropylbenzonitrile]
13 | 208 to 210 °C | CC=Cc1cc(O)c(Oc2ccccc2C)nn1 [Compound No. 2442, 3-(2-Methylphenoxy)-6-(1-propenyl)-4-pyridazinol]
14 | 98 to 100 °C | Oc1cc(Cl)nnc1Oc1ccccc1-c1ccccc1 [Compound No. 344, 3-([1,1′-Biphenyl]-2-yloxy)-6-chloro-4-pyridazinol]
15 | 91.5 to 92 °C | Cc1ccccc1Oc1nnc(Cl)cc1OS(=O)(=O)c1ccccc1 [Compound No. 2147, 6-Chloro-3-(2-methylphenoxy)-4-pyridazinyl benzenesulfonate]
16 | 245 to 247 °C | Oc1cc(Cl)nnc1Oc1cccc2c1C1CC1C2 (stereo not drawn) [Compound No. 515, 3-(1,1a,6,6a-Tetrahydrocyclopropa[a]inden-2-yloxy)-6-chloro-4-pyridazinol]
17 | 166 to 169 °C | Cc1ccccc1Oc1nnc(Cl)cc1OS(=O)(=O)c1ccc([N+](=O)[O-])cc1 [Compound No. 2287, 6-Chloro-3-(2-methylphenoxy)-4-pyridazinyl 4-nitrobenzenesulfonate]
18 | 98 to 99 °C | Cc1ccc(S(=O)(=O)Oc2cc(Cl)nnc2Oc2ccccc2C(C)(C)C)cc1 [Compound No. 2224, 3-(2-tert-Butylphenoxy)-6-chloro-4-pyridazinyl 4-methylbenzenesulfonate]
19 | 210 to 212 °C | Oc1cc(Cl)nnc1Oc1ccccc1OC(F)F [Compound No. 390, 6-Chloro-3-[2-(difluoromethoxy)phenoxy]-4-pyridazinol]
20 | 226 to 229 °C | N#Cc1cccc(Oc2nnc(Cl)cc2O)c1 [Compound No. 420, 3-[(6-Chloro-4-hydroxy-3-pyridazinyl)oxy]benzonitrile]
21 | 158 to 159 °C | CCC(C)c1ccccc1Oc1nnc(Cl)cc1O (stereo not drawn) [Compound No. 135, 3-(2-s-Butylphenoxy)-6-chloro-4-pyridazinol]
22 | 187 to 189 °C | CCC(C)c1cccc(C)c1Oc1nnc(Cl)cc1O (stereo not drawn) [Compound No. 804, 3-(2-s-Butyl-6-methylphenoxy)-6-chloro-4-pyridazinol]
23 | 115 to 116 °C | Cc1ccc(S(=O)(=O)Oc2cc(Cl)nnc2Oc2ccc(Cl)cc2C)cc1 [Compound No. 2246, 6-Chloro-3-(4-chloro-2-methylphenoxy)-4-pyridazinyl 4-methylbenzenesulfonate]
24 | 93 to 94 °C | Cc1ccccc1Oc1nnc(Cl)cc1OS(=O)(=O)c1ccc(Cl)cc1 [Compound No. 2198, 6-Chloro-3-(2-methylphenoxy)-4-pyridazinyl 4-chlorobenzenesulfonate]
25 | 254 to 260 °C | Cc1c(Cl)ccc(Br)c1Oc1nnc(Cl)cc1O [Compound No. 1053, 3-(6-Bromo-3-chloro-2-methylphenoxy)-6-chloro-4-pyridazinol]
26 | 176 to 177 °C | CC(C)Sc1ccccc1Oc1nnc(Cl)cc1O [Compound No. 403, 6-Chloro-3-[2-(isopropylsulfanyl)phenoxy]-4-pyridazinol]

Row | melting point | SMILES
27 | 172 to 174 °C | Cc1cc(C)c([N+](=O)[O-])c(Oc2nnc(Cl)cc2O)c1C [Compound No. 2608, 6-Chloro-3-(2,3,5-trimethyl-6-nitrophenoxy)-4-pyridazinol]
28 | 247 to 250 °C | Cc1ccccc1Oc1cc(O)c(Oc2ccccc2C)nn1 [Compound No. 2492, 3,6-Bis(2-methylphenoxy)-4-pyridazinol]
29 | 210 to 212 °C | CN(C)S(=O)(=O)n1ccc(-c2ccccc2Oc2nnc(Cl)cc2O)n1 [Compound No. 368, 3-{2-[(6-Chloro-4-hydroxy-3-pyridazinyl)oxy]phenyl}N,N-dimethyl-1H-pyrazole-1-sulfonamide]
30 | 249 to 253 °C | CC(C)c1cc(Oc2nnc(Cl)cc2O)cc(C(C)C)c1 [Compound No. 1007, 6-Chloro-3-(3,5-diisopropylphenoxy)-4-pyridazinol]
31 | 140 to 147 °C | Cc1cccc(C2CC2)c1Oc1nnc(Cl)cc1OC(=O)N(C)c1ccccn1
32 | 73 to 74 °C | CCOC(=O)Oc1cc(Cl)nnc1Oc1ccccc1C [Compound No. 1706, 6-Chloro-3-(2-methylphenoxy)-4-pyridazinyl ethyl carbonate]
33 | 224 to 237 °C | COc1cccc(Oc2nnc(Cl)cc2O)c1C [Compound No. 459, 6-Chloro-3-(3-methoxy-2-methylphenoxy)-4-pyridazinol]
34 | 215 to 217 °C | Oc1cc(Cl)nnc1Oc1ccccc1-c1nc2ccccc2s1 [Compound No. 376, 3-[2-(1,3-Benzothiazol-2-yl)phenoxy]-6-chloro-4-pyridazinol]
35 | 232 to 237 °C | Oc1cc(Cl)nnc1Oc1cccc2c1CCCC2 [Compound No. 521, 6-Chloro-3-(5,6,7,8-tetrahydro-1-naphthalenyloxy)-4-pyridazinol]
36 | 174 to 175 °C | CSc1ccccc1Oc1nnc(Cl)cc1O [Compound No. 401, 6-Chloro-3-[2-(methylsulfanyl)phenoxy]-4-pyridazinol]
37 | 222 to 225 °C | Cc1ccc2c(c1Oc1nnc(Cl)cc1O)CCC2 [Compound No. 1088, 6-Chloro-3-[(5-methyl-2,3-dihydro-1H-inden-4-yl)oxy]-4-pyridazinol]
38 | 215 to 220 °C | CC(C)c1cccc(F)c1Oc1nnc(Cl)cc1O [Compound No. 717, 6-Chloro-3-(2-fluoro-6-isopropylphenoxy)-4-pyridazinol]
39 | 170 to 180 °C | Oc1cc(Cl)nnc1Oc1ccc(OCc2ccccc2)cc1 [Compound No. 2548, 3-[4-(Benzyloxy)phenoxy]-6-chloro-4-pyridazinol]
40 | 213 to 215 °C | Cc1cccc(C2CC2(Cl)Cl)c1Oc1nnc(Cl)cc1O (stereo not drawn) [Compound No. 827, 6-Chloro-3-[2-(2,2-dichlorocyclopropyl)-6-methylphenoxy]-4-pyridazinol]
41 | 214 to 215 °C | Cc1ccccc1Oc1nnc(C2CC2)cc1O [Compound No. 2423, 6-Cyclopropyl-3-(2-methylphenoxy)-4-pyridazinol]
42 | 240 to 244 °C | Cc1cc(C)c(Br)c(Oc2nnc(Cl)cc2O)c1 [Compound No. 1013, 3-(2-Bromo-3,5-dimethylphenoxy)-6-chloro-4-pyridazinol]
43 | 200 to 203 °C | Oc1cc(Cl)nnc1Oc1c(F)cccc1C1CC1 [Compound No. 719, 6-Chloro-3-(2-cyclopropyl-6-fluorophenoxy)-4-pyridazinol]
44 | 200 to 202 °C | Oc1cc(Cl)nnc1Oc1cccc(-c2ccco2)c1 [Compound No. 419, 6-Chloro-3-[3-(2-furyl)phenoxy]-4-pyridazinol]
45 | 92 to 93 °C | CN(C)C(=O)Oc1cc(Cl)nnc1Oc1cccc(C(F)(F)F)c1
46 | 187 to 192 °C | COc1ccc(C#N)cc1Oc1nnc(Cl)cc1O [Compound No. 707, 3-[(6-Chloro-4-hydroxy-3-pyridazinyl)oxy]-4-methoxybenzonitrile]
47 | 83.5 to 84.5 °C | CC(C)(C)c1ccccc1Oc1nnc(Cl)cc1OS(=O)(=O)c1ccc(Cl)cc1 [Compound No. 2200, 3-(2-tert-Butylphenoxy)-6-chloro-4-pyridazinyl 4-chlorobenzenesulfonate]
48 | 188 to 193 °C | Oc1cc(Cl)nnc1Oc1cccc(F)c1F [Compound No. 437, 6-Chloro-3-(2,3-difluorophenoxy)-4-pyridazinol]
49 | 210 to 212 °C | Oc1cc(Cl)nnc1Oc1ccccc1F [Compound No. 124, 6-Chloro-3-(2-fluorophenoxy)-4-pyridazinol]
50 | 242 to 243 °C | Cc1cccc(Br)c1Oc1nnc(Cl)cc1O [Compound No. 758, 3-(2-Bromo-6-methylphenoxy)-6-chloro-4-pyridazinol]
51 | 233 to 237 °C | Oc1cc(Cl)nnc1Oc1ccc(Cl)cc1Cl [Compound No. 552, 6-Chloro-3-(2,4-dichlorophenoxy)-4-pyridazinol]
